Laboratory results as given in ChEMBL document CHEMBL1201862, “PubChem BioAssay data set” (2004).
Activity calls are given as the source filed them.

Columns and labels:
[1] = target: T1, Carboxy-terminal domain RNA polymerase II polypeptide A small phosphatase 1 (Homo sapiens, UniProt Q9GZU7); assay: inhibitors of CTDSP1, concentration-response testing, biochemical assay, absorbance-based, actives from ultra-high-throughput screening (AID 540297); format: functional
T1 sequence (Q9GZU7 whole entry): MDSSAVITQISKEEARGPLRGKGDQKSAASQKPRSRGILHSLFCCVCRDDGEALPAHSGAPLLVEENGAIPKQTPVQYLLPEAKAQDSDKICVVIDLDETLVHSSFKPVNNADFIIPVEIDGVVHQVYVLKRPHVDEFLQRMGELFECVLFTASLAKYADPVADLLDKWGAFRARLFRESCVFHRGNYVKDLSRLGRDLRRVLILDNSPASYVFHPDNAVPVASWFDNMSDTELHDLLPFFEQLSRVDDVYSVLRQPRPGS

[2] = target: Luciferin 4-monooxygenase (Photinus pyralis, UniProt P08659); assay: firefly luciferase enzyme inhibitors, dose response, biochemical, luminescence (AID 1891)
[3] = target: T2, Replicative DNA helicase DnaB (Mycobacterium tuberculosis, UniProt P9WMR3); assay: DnaB intein splicing inhibitors, dose response, biochemical, cell-free fluorescence (AID 449749); format: functional
T2 sequence (P9WMR3 whole entry): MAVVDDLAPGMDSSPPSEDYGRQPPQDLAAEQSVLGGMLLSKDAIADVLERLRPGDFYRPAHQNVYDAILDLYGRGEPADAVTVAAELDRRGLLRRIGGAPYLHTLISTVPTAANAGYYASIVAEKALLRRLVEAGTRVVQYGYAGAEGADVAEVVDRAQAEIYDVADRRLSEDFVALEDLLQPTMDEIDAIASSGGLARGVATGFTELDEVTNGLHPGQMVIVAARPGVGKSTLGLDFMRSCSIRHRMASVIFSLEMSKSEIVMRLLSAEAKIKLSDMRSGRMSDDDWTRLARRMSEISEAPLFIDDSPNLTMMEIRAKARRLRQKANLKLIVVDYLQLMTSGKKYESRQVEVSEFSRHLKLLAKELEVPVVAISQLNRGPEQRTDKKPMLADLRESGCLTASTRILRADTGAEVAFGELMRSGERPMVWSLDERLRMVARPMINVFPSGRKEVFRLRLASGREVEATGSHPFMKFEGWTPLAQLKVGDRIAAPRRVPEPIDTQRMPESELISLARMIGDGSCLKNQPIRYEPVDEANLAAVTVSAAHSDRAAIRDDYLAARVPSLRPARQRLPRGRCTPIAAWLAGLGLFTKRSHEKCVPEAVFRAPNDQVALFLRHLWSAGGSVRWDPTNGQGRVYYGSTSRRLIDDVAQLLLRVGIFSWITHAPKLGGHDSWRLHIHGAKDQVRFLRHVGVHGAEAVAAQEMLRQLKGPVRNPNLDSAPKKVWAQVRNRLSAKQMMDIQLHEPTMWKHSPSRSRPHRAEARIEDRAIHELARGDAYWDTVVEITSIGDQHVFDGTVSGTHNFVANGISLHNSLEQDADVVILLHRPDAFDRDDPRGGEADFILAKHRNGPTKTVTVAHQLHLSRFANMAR

Protein RecA = target: T3, Protein RecA (Mycobacterium tuberculosis, UniProt P9WHJ3); assay: Fluorescence Cell-Free Homogeneous Dose Retest to Identify Inhibitors of RecA-Intein Splicing Activity. [Related pubchem assays (depositor defined):AID2097, AID2223, AID489010, AID492950]; format: functional
T3 sequence (P9WHJ3 whole entry): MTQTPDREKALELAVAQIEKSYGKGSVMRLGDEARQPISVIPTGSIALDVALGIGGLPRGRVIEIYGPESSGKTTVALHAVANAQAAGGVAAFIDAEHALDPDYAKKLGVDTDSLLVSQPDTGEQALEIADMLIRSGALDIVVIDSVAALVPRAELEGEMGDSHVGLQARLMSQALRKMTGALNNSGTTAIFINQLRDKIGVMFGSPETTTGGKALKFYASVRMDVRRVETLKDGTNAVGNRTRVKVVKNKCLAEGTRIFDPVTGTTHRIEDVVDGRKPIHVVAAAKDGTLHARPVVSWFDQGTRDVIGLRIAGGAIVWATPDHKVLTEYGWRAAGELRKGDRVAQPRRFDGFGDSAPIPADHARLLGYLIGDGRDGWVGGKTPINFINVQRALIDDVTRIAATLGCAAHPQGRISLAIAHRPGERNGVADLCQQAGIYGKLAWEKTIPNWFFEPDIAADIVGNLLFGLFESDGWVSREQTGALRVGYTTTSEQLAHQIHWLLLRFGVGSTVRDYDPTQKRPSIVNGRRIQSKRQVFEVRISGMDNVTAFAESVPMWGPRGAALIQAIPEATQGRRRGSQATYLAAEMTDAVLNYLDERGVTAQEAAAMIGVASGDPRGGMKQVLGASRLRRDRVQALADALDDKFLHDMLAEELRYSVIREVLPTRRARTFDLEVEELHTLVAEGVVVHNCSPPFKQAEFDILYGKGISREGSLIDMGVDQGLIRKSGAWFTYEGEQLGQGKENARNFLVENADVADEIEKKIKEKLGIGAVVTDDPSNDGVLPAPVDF

[4] = Luminescence Cell-Based Dose Confirmation HTS to Identify Inhibitors of Platelet Dense Granule Release. [Related pubchem assays: 1663 (Primary HTS), 1678 (Summary of Project)]; format: functional
P388/ADR = assay: cells; format: functional
P388 = assay: cells; format: functional
SN12K1 = assay: cells; format: functional
[5] = inhibitors of intracellular T. cruzi replication, confirmation, NIH3T3 host cells, beta-gal luminescence (AID 2044); format: functional, cell-based;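 further: intracellular parasites grown in NIH/3T3 mouse fibroblasts as host cells; luminescent beta-galactosidase reporter signal from transgenic T. cruzi replicating inside host cells; inhibitors lower the luminescence signal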
[6] = Shn3 3'UTR reporter inhibitors, dose response, cell-based, Clone20 osteoblasts, firefly luciferase, cherry-picked (AID 624132); format: functional;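 further: firefly luciferase luminescence from reporter carrying the Shn3 3'UTR in osteoblasts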
[7] = HepG2 cell cytotoxicity, dose response, cytotoxicity control for Shn3 inhibitor project, CellTiter-Glo, cherry-picked (AID 624134); format: functional, cell-based
[8] = Luminescence Cell-Based Dose Retest to Confirm Inhibitors of Cancer Stem Cells. [Related pubchem assays (depositor defined):AID2717, AID2721]; format: functional; details: Homo sapiens
[9] = cytotoxicity toward NIH3T3 fibroblasts, dose response, counter-screen, cell-based, ATP luminescence, mouse fibroblasts (AID 2010); format: functional;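 further: cells exposed to compound for about 90 hours before reading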
[10] = control 3'UTR Renilla luciferase suppression, dose response, counter-screen for Shn3 inhibitor project, cell-based, Clone20-Shn3RL, cherry-picked (AID 624133); format: functional
H4 = assay: Luminescence Cell-Based Dose Response HTS to Identify Activators of 5'UTR Stem-Loop Driven Prion Protein mRNA Translation in H4 Neuroglioblastoma Cells. [Related pubchem assays: 1829 (Project Summary), 1814 (Primary HTS)]; format: functional; details: Homo sapiens
[11] = Luminescence Cell-Based Dose Response HTS to Identify Activators of Luciferase Translation or Activity in H4 […] Cells. [Related pubchem assays: 1829 (Project Summary), 1814 (Primary HTS)]; format: functional
[12] = Luminescence Cell-Based Dose Confirmation HTS to Identify Activators of 5'UTR Stem-Loop Driven Alpha-Synuclein mRNA Translation in H4 Neuroglioblastoma Cells. [Related pubchem assays: 1829 (Project Summary), 1814 (Primary HTS)]; format: functional

Chain of Luciferin 4-monooxygenase (P08659 whole entry): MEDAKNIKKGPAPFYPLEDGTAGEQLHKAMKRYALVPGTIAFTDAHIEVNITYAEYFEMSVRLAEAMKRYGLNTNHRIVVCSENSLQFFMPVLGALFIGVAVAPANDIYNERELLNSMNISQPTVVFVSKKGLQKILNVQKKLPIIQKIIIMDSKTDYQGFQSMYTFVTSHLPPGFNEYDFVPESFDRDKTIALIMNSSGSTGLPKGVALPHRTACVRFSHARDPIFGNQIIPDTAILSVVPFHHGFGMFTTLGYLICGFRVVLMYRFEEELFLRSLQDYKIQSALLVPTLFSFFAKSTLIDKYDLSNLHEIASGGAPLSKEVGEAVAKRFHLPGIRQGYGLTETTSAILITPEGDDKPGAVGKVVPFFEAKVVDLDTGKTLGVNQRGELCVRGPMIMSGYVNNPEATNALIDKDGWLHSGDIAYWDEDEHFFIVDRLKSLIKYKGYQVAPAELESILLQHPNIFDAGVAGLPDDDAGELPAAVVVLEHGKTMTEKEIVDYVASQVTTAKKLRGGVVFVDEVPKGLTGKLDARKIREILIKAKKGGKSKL

| SMILES | IC50 [1] | GI50 (P388/ADR; Mus musculus, P388/ADR) | GI50 (P388; Mus musculus, P388) | GI50 (SN12K1; Homo sapiens, SN12K1) | further results |
| --- | --- | --- | --- | --- | --- |
| CCn1cc(C(=O)NCc2ccco2)c(=O)c2cc(F)c(N3CCN(C(=O)c4ccco4)CC3)cc21 | 17.6 µM (active) |  |  |  |  |
| CC(/C=C/c1ccco1)=N\NC(=O)c1cc(Cl)ccc1O | 10.7 µM (active) |  |  |  |  |
| COc1ccc(NC(=O)CSc2c3c(nc4cc(Cl)ccc24)CCCC3)cc1OC |  |  |  |  | EC50 [2]: > 112 µM (not active); AC50 [3]: 8.17 µM (active); EC50 (Protein RecA): 3.1 µM (active); EC50 [4]: > 112 µM (not active) |
| COc1ccc(C(=O)NCC(=O)Nc2ccc(-c3ccccc3)cc2)cc1 | 5.62 µM (active) |  |  |  |  |
| O=C1CNC(=O)N1 [HYDANTOIN] |  | 706 µM (inactive) | 630 µM (inactive) | > 1120 µM (inactive) |  |
| COc1cccc2cc(-c3cc(=O)oc4cc(C)c(O)cc34)oc12 | 9.12 µM (active) |  |  |  |  |
| Cc1ccc(OCC(=O)NNC(=O)Cn2nnc(-c3ccccc3)n2)cc1 | 12.7 µM (active) |  |  |  |  |
| O=C(Nc1nc2ccccc2s1)C1CCN(S(=O)(=O)c2cc([N+](=O)[O-])ccc2Cl)CC1 | 3.28 µM (active) |  |  |  | EC50 [5]: 0.713 µM (active); AC50 [6]: 3.07 µM (active); AC50 [7]: 50.7 µM (active); AC50 [8]: 25 µM (active); EC50 [9]: > 60 µM (not active); AC50 [10]: 2.18 µM (active) |
| O=C1N[C@@H]2C(=C[C@H](O)[C@@H](O)[C@H]2O)c2cc3c(c(O)c21)OCO3 [NARCICLASINE] |  | 0.045 µM (active) | 0.045 µM (active) | 0.045 µM (active) |  |
| CC[C@]1(O)C[C@H]2CN(CCc3c([nH]c4ccccc34)[C@@](C(=O)OC)(c3cc4c(cc3OC)N(C)[C@H]3[C@@](O)(C(=O)OC)[C@H](OC(C)=O)[C@]5(CC)C=CCN6CC[C@]43[C@@H]65)C2)C1 |  | 0.103 µM (active) | 0.000674 µM (active) | 0.000348 µM (active) |  |
| CCCCCCc1ccc(O)cc1O [HEXYLRESORCINOL] |  | 45.2 µM (inactive) | 48.4 µM (inactive) | 37.5 µM (inactive) | EC50 [5]: 0.781 µM (active); EC50 [9]: > 30 µM (not active) |
| CNCCNc1ccc2c3c(nn2CCNCCO)-c2c(O)ccc(O)c2C(=O)c13 |  | 0.216 µM (active) | 0.000867 µM (active) | 0.0673 µM (active) |  |
| O=C1c2ccccc2-c2c1nc1c([n+]2[O-])CCCC1 |  |  |  |  | EC50 (H4): 6.95 µM (active); AC50 [3]: 21 µM (active); EC50 [11]: 4.63 µM (active); EC50 [12]: 0.262 µM (active); EC50 (Protein RecA): 20.1 µM (active) |
| CCOC(=O)NC(=O)c1cn(CCN(CCO)C(=O)NCCCCCCNC(=O)N(CCO)CCn2cc(C(=O)NC(=O)OCC)c(=O)[nH]c2=O)c(=O)[nH]c1=O |  | > 100 µM (inactive) | > 100 µM (inactive) | > 100 µM (inactive) |  |
| CC(C)NC(=O)OCc1c2c(n(C)c1COC(=O)NC(C)C)-c1ccccc1CC2 |  | 2 µM (inactive) | 1.79 µM (inactive) | 12 µM (inactive) |  |
| Cc1c2cc[n+](C)cc2c(C)c2c1[nH]c1ccccc12 |  |  |  |  | GI50 (P388/ADR): 70 µM (inactive); GI50 (P388): 1.12 µM (inactive); GI50 (SN12K1): 0.385 µM (active) |
| Nc1ccn(C2CCC(CO)O2)c(=O)n1 (stereo not drawn) |  | > 80.4 µM (inactive) | > 100 µM (inactive) | > 100 µM (inactive) |  |
| CCCCCCCCCOCC(COP(=O)([O-])OCC[N+](C)(C)C)OC (stereo not drawn) |  | > 100 µM (inactive) | 99.1 µM (inactive) | > 100 µM (inactive) |  |
